This note sets out measurements from patent US11299462B2, “Crystal form of oxopicolinamide derivative and preparation method therefor” (JIANGSU HENGRUI MEDICINE CO., LTD., priority 2018, dated 2022).

Data set [1] in a line: Study of the stability of the crystal forms (HPLC purity and XRPD crystal form, Day 7). In kind it is physicochemical. As to conditions: for XRPD peaks / crystallinity / HPLC purity change / crystal form stability: 25° C.-60% RH and 40° C.-75% RH; for Purity %: HPLC purity, Day 7, spread flat in the air; for Crystal form: XRPD, Day 7; for chemical stability: conclusion from Table 7. The method, then:
Example 13. Study of the Stability of the Crystal Forms
The samples of crystal forms A, B, C, D and F were spread flat in the air to test sample stability under conditions of 4° C., 25° C.-60% relative humidity (RH) and 40° C.-75% relative humidity (RH). The sampling was carried out on Day 7. The HPLC purity and crystal form stability of the samples were studied.
The XRPD spectrums of the samples of crystal forms A, B, C, D and F under conditions of 25° C.-60% RH and 40° C.-75% RH are shown in FIGS. 7 to 16.
It can be seen that the stability of crystal forms B and F is better than that of crystal forms A, C and D.

For data set [2], the system named is human blood. Kind of data set: In vitro anticoagulant effect on human blood (APTT detection in plasma). Type of data set: biochemical. As to the method: Test Example 2: Determination of In Vitro Anticoagulant Effect of the Compound of the Present Invention on Human Blood
1. Experimental Materials
Plasma: human blood was collected in blood collection tubes free of anticoagulant, and then 3.8% sodium citrate (volume ratio 1:9) was added. The tubes were centrifuged at 2500 rpm for 10 minutes at room temperature, and then the plasma was collected and stored at −80° C.;
Reagents: APTT reagent (Activated partial thromboplastin time assay kit, SIEMENS, No. B4218-1), calcium chloride solution;
Instrument: coagulation instrument (SYSMEX, CA-500).
The separated plasma was melted at room temperature and mixed well. 10000 μM of test compound dissolved in 100% DMSO was diluted to 3000, 300, 200, 150, 75, 30, 10, 3, 0.3 μM with 100% DMSO, and the blank was 100% DMSO. The reagent, plasma, and compounds were placed in corresponding positions in the coagulation instrument, and APTT detection of the compound was carried out.
Curve fitting was carried out by Prism, and CT2 (i.e., the concentration of the compound corresponding to 2 times the APTT of the blank control) was calculated. CT2=2.0.

As to `COc1cn([C@@H](Cc2ccccc2)C(=O)Nc2ccc(C(=O)O)cc2)c(=O)cc1-c1cc(Cl)ccc1C(C)=O` [Crystal form D, (S)-4-(2-(4-(2-acetyl-5-chlorophenyl)-5-methoxy-2-oxopyridin-1(2H)-yl)-3-phenylpropanamido)benzoic acid], in data set [1], the XRPD peaks entry is reported as “have changed with the loss of some peak characters”, the crystallinity entry was “has decreased” and the chemical stability result is given as “good”. Besides, in data set [1] (4° C.), the Purity % was 98.4% and the Crystal form entry is reported as “Same”. For the same molecule, in data set [1] (25° C. 60% RH), the Purity % turned out to be 98.15% and the Crystal form result is on record as “Different”. Further, in data set [1] (40° C. 75% RH), the Purity % was found to be 98.33% and the Crystal form entry was “Different”.
Take `COc1cn([C@@H](Cc2ccccc2)C(=O)Nc2ccc(C(=O)O)cc2)c(=O)cc1-c1cc(Cl)ccc1C(C)=O` [Crystal form B, (S)-4-(2-(4-(2-Acetyl-5-chlorophenyl)-5-methoxy-2-oxopyridin-1(2H)-yl)-3-phenylpropanamido)benzoic acid]: in data set [1] (4° C.), the HPLC purity change result was “changed slightly”, the XRPD peaks entry is given as “have not changed”, the crystal form stability result is recorded as “stable” and the Purity % came to 99.13%. For the same molecule, in data set [1] (4° C.), the Crystal form result is given as “Same”. In data set [1] (25° C. 60% RH), the Purity % stood at 99.14% and the Crystal form result is “Same”. In data set [1] (40° C. 75% RH), the Purity % is 99.13% and the Crystal form result is reported as “Same”. Also, in data set [1], the chemical stability result is “good”.
As for `COc1cn([C@@H](Cc2ccccc2)C(=O)Nc2ccc(C(=O)O)cc2)c(=O)cc1-c1cc(Cl)ccc1C(C)=O` [Crystal form C, (S)-4-(2-(4-(2-Acetyl-5-chlorophenyl)-5-methoxy-2-oxopyridin-1(2H)-yl)-3-phenylpropanamido)benzoic acid], the XRPD result in data set [1] (40° C.-75% RH) is recorded as “has also changed”. In addition, the Purity % in data set [1] (4° C.) is on record as 99.28%; in data set [1] (25° C. 60% RH) it was 99.29%; in data set [1] (40° C. 75% RH) it was 99.31%. Moreover, the Crystal form entry in data set [1] (4° C.) was “Same”; in data set [1] (25° C. 60% RH) it was “Same”; in data set [1] (40° C. 75% RH), “Different”. Also, the chemical stability result in data set [1] was “good”.
For the molecule `COc1cn([C@@H](Cc2ccccc2)C(=O)Nc2ccc(C(=O)O)cc2)c(=O)cc1-c1cc(Cl)ccc1C(C)=O` [Crystal form A, (S)-4-(2-(4-(2-Acetyl-5-chlorophenyl)-5-methoxy-2-oxopyridin-1(2H)-yl)-3-phenylpropanamido)benzoic acid], in data set [1], the XRPD peaks result is on record as “have changed with the loss of some peak characters”, the crystallinity entry is reported as “has decreased” and the chemical stability result is recorded as “good”. In addition, in data set [1] (4° C.), the Purity % is 98.94% and the Crystal form entry is listed as “Same”. For the same molecule, in data set [1] (25° C. 60% RH), the Purity % is recorded as 98.99% and the Crystal form entry is “Different”. In data set [1] (40° C. 75% RH), the Purity % was 99.01% and the Crystal form entry was “Different”.
As for `COc1cn([C@@H](Cc2ccccc2)C(=O)Nc2ccc(C(=O)O)cc2)c(=O)cc1-c1cc(Cl)ccc1C(C)=O` [compound of formula (I), (S)-4-(2-(4-(2-acetyl-5-chlorophenyl)-5-methoxy-2-oxopyridin-1(2H)-yl)-3-phenylpropanamido) benzoic acid], in data set [2], the “CT2 (concentration of the compound corresponding to 2 times the APTT of the blank control)” value is given as 2.0.
As to `COc1cn([C@@H](Cc2ccccc2)C(=O)Nc2ccc(C(=O)O)cc2)c(=O)cc1-c1cc(Cl)ccc1C(C)=O` [Crystal form F, (S)-4-(2-(4-(2-Acetyl-5-chlorophenyl)-5-methoxy-2-oxopyridin-1(2H)-yl)-3-phenylpropanamido)benzoic acid], in data set [1] (4° C.), the HPLC purity change result was “changed slightly”, the XRPD peaks entry was “have not changed”, the crystal form stability result is “stable” and the Purity % is 99.17%. In addition, in data set [1] (4° C.), the Crystal form result is “Same”. Also, in data set [1] (25° C. 60% RH), the Purity % was 99.33% and the Crystal form result is given as “Same”. In data set [1] (40° C. 75% RH), the Purity % came to 99.21% and the Crystal form result was “Same”. The chemical stability result in data set [1] is on record as “good”.
